Measured values: ChEMBL document CHEMBL4376833, “Influence of Non-natural Cationic Amino Acids on the Biological Activity Profile of Innate Defense Regulator Peptides” (J Med Chem, 2019)
Calls of active or inactive are those of the source. No rule for the calls is given here. Non-standard residues stand in square brackets, D forms with d. Residues, ends and D or L forms follow the SMILES beside them. hArg = N=C(N)NCCCC[C@H](N)C(=O)O; Agb = N=C(N)NCC[C@H](N)C(=O)O; Agp = N=C(N)NC[C@H](N)C(=O)O; Orn = NCCC[C@H](N)C(=O)O; Dab = NCC[C@H](N)C(=O)O; Dap = NC[C@H](N)C(=O)O

Columns and labels:
Staphylococcus aureus [1] = test: Antibiofilm activity against methicillin-resistant Staphylococcus aureus assessed as inhibition of biofilm formation incubated for overnight by crystal violet staining based microtiter plate assay; assay type: functional, organism-based
Staphylococcus aureus [2] = test: Antibiofilm activity against methicillin-resistant Staphylococcus aureus assessed as inhibition of biofilm formation by measuring residual biofilm growth incubated for overnight at 10-fold dilution by crystal violet staining based microtiter plate assay relative to control; assay type: functional
Staphylococcus aureus [3] = test: Antibacterial activity against methicillin-resistant Staphylococcus aureus assessed as alteration in bacterial growth incubated for overnight by microtiter plate based spectrophotometric analysis; assay type: functional, organism-based

Row | Structure (SMILES) | inhibition (Staphylococcus aureus [1]) | residual biofilm growth (% of control) (Staphylococcus aureus [2]) | Activity (Staphylococcus aureus [3])
1 | CC[C@H](C)[C@H](NC(=O)[C@H](CC(C)C)NC(=O)[C@H](CCCNC(=N)N)NC(=O)[C@@H](N)C(C)C)C(=O)N[C@H](C(=O)N[C@@H](C)C(=O)N[C@H](C(=O)N[C@@H](CCCNC(=N)N)C(=O)N[C@@H](CNC(=N)N)C(=O)N[C@@H](Cc1c[nH]c2ccccc12)C(=O)N[C@@H](CCCNC(=N)N)C(=O)N[C@@H](CCCNC(=N)N)C(N)=O)C(C)C)C(C)C (H-VRLIVAVR[Agp]WRR-NH2) | Dose-dependent effect | 104.1% | Active
2 | CC[C@H](C)[C@H](NC(=O)[C@H](CC(C)C)NC(=O)[C@H](CCCNC(=N)N)NC(=O)[C@@H](N)C(C)C)C(=O)N[C@H](C(=O)N[C@@H](C)C(=O)N[C@H](C(=O)N[C@@H](CCCNC(=N)N)C(=O)N[C@@H](CCN)C(=O)N[C@@H](Cc1c[nH]c2ccccc12)C(=O)N[C@@H](CCCNC(=N)N)C(=O)N[C@@H](CCCNC(=N)N)C(N)=O)C(C)C)C(C)C (H-VRLIVAVR[Dab]WRR-NH2) | Dose-dependent effect | 102% | Active
3 | CC[C@H](C)[C@H](NC(=O)[C@H](CC(C)C)NC(=O)[C@H](CCCNC(=N)N)NC(=O)[C@@H](N)C(C)C)C(=O)N[C@H](C(=O)N[C@@H](C)C(=O)N[C@H](C(=O)N[C@@H](CCCNC(=N)N)C(=O)N[C@@H](CN)C(=O)N[C@@H](Cc1c[nH]c2ccccc12)C(=O)N[C@@H](CCCNC(=N)N)C(=O)N[C@@H](CCCNC(=N)N)C(N)=O)C(C)C)C(C)C (H-VRLIVAVR[Dap]WRR-NH2) | Dose-dependent effect | 51.8% | Active
4 | CC[C@H](C)[C@H](NC(=O)[C@H](CC(C)C)NC(=O)[C@H](CCCNC(=N)N)NC(=O)[C@@H](N)C(C)C)C(=O)N[C@H](C(=O)N[C@@H](C)C(=O)N[C@H](C(=O)N[C@@H](CCCNC(=N)N)C(=O)N[C@@H](CCCN)C(=O)N[C@@H](Cc1c[nH]c2ccccc12)C(=O)N[C@@H](CCCNC(=N)N)C(=O)N[C@@H](CCCNC(=N)N)C(N)=O)C(C)C)C(C)C (H-VRLIVAVR[Orn]WRR-NH2) | Dose-dependent effect | 79.3% | Active
5 | CC[C@H](C)[C@H](NC(=O)[C@H](CC(C)C)NC(=O)[C@H](CCCNC(=N)N)NC(=O)[C@@H](N)C(C)C)C(=O)N[C@H](C(=O)N[C@@H](C)C(=O)N[C@H](C(=O)N[C@@H](CCCNC(=N)N)C(=O)N[C@@H](CCCCNC(=N)N)C(=O)N[C@@H](Cc1c[nH]c2ccccc12)C(=O)N[C@@H](CCCNC(=N)N)C(=O)N[C@@H](CCCNC(=N)N)C(N)=O)C(C)C)C(C)C (H-VRLIVAVR[hArg]WRR-NH2) | Dose-dependent effect | 84.7% | Active
6 | CC[C@H](C)[C@H](NC(=O)[C@H](CCNC(=N)N)NC(=O)[C@@H](NC(=O)[C@H](C)NC(=O)[C@@H](NC(=O)[C@@H](NC(=O)[C@H](CC(C)C)NC(=O)[C@H](CCCNC(=N)N)NC(=O)[C@@H](N)C(C)C)[C@@H](C)CC)C(C)C)C(C)C)C(=O)N[C@@H](Cc1c[nH]c2ccccc12)C(=O)N[C@@H](CCCNC(=N)N)C(=O)N[C@@H](CCCNC(=N)N)C(N)=O (H-VRLIVAV[Agb]IWRR-NH2) | Dose-dependent effect | 103.5% | Active
7 | CC[C@H](C)[C@H](NC(=O)[C@H](CNC(=N)N)NC(=O)[C@@H](NC(=O)[C@H](C)NC(=O)[C@@H](NC(=O)[C@@H](NC(=O)[C@H](CC(C)C)NC(=O)[C@H](CCCNC(=N)N)NC(=O)[C@@H](N)C(C)C)[C@@H](C)CC)C(C)C)C(C)C)C(=O)N[C@@H](Cc1c[nH]c2ccccc12)C(=O)N[C@@H](CCCNC(=N)N)C(=O)N[C@@H](CCCNC(=N)N)C(N)=O (H-VRLIVAV[Agp]IWRR-NH2) | Dose-dependent effect | 102.2% | Active
8 | CC[C@H](C)[C@H](NC(=O)[C@H](CCN)NC(=O)[C@@H](NC(=O)[C@H](C)NC(=O)[C@@H](NC(=O)[C@@H](NC(=O)[C@H](CC(C)C)NC(=O)[C@H](CCCNC(=N)N)NC(=O)[C@@H](N)C(C)C)[C@@H](C)CC)C(C)C)C(C)C)C(=O)N[C@@H](Cc1c[nH]c2ccccc12)C(=O)N[C@@H](CCCNC(=N)N)C(=O)N[C@@H](CCCNC(=N)N)C(N)=O (H-VRLIVAV[Dab]IWRR-NH2) | Dose-dependent effect | 103.9% | Active
9 | CC[C@H](C)[C@H](NC(=O)[C@H](CN)NC(=O)[C@@H](NC(=O)[C@H](C)NC(=O)[C@@H](NC(=O)[C@@H](NC(=O)[C@H](CC(C)C)NC(=O)[C@H](CCCNC(=N)N)NC(=O)[C@@H](N)C(C)C)[C@@H](C)CC)C(C)C)C(C)C)C(=O)N[C@@H](Cc1c[nH]c2ccccc12)C(=O)N[C@@H](CCCNC(=N)N)C(=O)N[C@@H](CCCNC(=N)N)C(N)=O (H-VRLIVAV[Dap]IWRR-NH2) | Dose-dependent effect | 26.8% | Active
10 | CC[C@H](C)[C@H](NC(=O)[C@H](CCCN)NC(=O)[C@@H](NC(=O)[C@H](C)NC(=O)[C@@H](NC(=O)[C@@H](NC(=O)[C@H](CC(C)C)NC(=O)[C@H](CCCNC(=N)N)NC(=O)[C@@H](N)C(C)C)[C@@H](C)CC)C(C)C)C(C)C)C(=O)N[C@@H](Cc1c[nH]c2ccccc12)C(=O)N[C@@H](CCCNC(=N)N)C(=O)N[C@@H](CCCNC(=N)N)C(N)=O (H-VRLIVAV[Orn]IWRR-NH2) | Dose-dependent effect | 14% | Active
11 | CC[C@H](C)[C@H](NC(=O)[C@H](CCCCNC(=N)N)NC(=O)[C@@H](NC(=O)[C@H](C)NC(=O)[C@@H](NC(=O)[C@@H](NC(=O)[C@H](CC(C)C)NC(=O)[C@H](CCCNC(=N)N)NC(=O)[C@@H](N)C(C)C)[C@@H](C)CC)C(C)C)C(C)C)C(=O)N[C@@H](Cc1c[nH]c2ccccc12)C(=O)N[C@@H](CCCNC(=N)N)C(=O)N[C@@H](CCCNC(=N)N)C(N)=O (H-VRLIVAV[hArg]IWRR-NH2) | Dose-dependent effect | 26.3% | Active
12 | CC[C@H](C)[C@H](NC(=O)[C@H](CCCNC(=N)N)NC(=O)[C@H](CCNC(=N)N)NC(=O)[C@H](C)NC(=O)[C@@H](NC(=O)[C@@H](NC(=O)[C@H](CC(C)C)NC(=O)[C@H](CCCNC(=N)N)NC(=O)[C@@H](N)C(C)C)[C@@H](C)CC)C(C)C)C(=O)N[C@@H](Cc1c[nH]c2ccccc12)C(=O)N[C@@H](CCCNC(=N)N)C(=O)N[C@@H](CCCNC(=N)N)C(N)=O (H-VRLIVA[Agb]RIWRR-NH2) | Dose-dependent effect | 104.1% | Active
13 | CC[C@H](C)[C@H](NC(=O)[C@H](CCCNC(=N)N)NC(=O)[C@H](CNC(=N)N)NC(=O)[C@H](C)NC(=O)[C@@H](NC(=O)[C@@H](NC(=O)[C@H](CC(C)C)NC(=O)[C@H](CCCNC(=N)N)NC(=O)[C@@H](N)C(C)C)[C@@H](C)CC)C(C)C)C(=O)N[C@@H](Cc1c[nH]c2ccccc12)C(=O)N[C@@H](CCCNC(=N)N)C(=O)N[C@@H](CCCNC(=N)N)C(N)=O (H-VRLIVA[Agp]RIWRR-NH2) | Dose-dependent effect | 106.7% | Active
14 | CC[C@H](C)[C@H](NC(=O)[C@H](CCCNC(=N)N)NC(=O)[C@H](CCN)NC(=O)[C@H](C)NC(=O)[C@@H](NC(=O)[C@@H](NC(=O)[C@H](CC(C)C)NC(=O)[C@H](CCCNC(=N)N)NC(=O)[C@@H](N)C(C)C)[C@@H](C)CC)C(C)C)C(=O)N[C@@H](Cc1c[nH]c2ccccc12)C(=O)N[C@@H](CCCNC(=N)N)C(=O)N[C@@H](CCCNC(=N)N)C(N)=O (H-VRLIVA[Dab]RIWRR-NH2) | Dose-dependent effect | 102.5% | Active
15 | CC[C@H](C)[C@H](NC(=O)[C@H](CCCNC(=N)N)NC(=O)[C@H](CN)NC(=O)[C@H](C)NC(=O)[C@@H](NC(=O)[C@@H](NC(=O)[C@H](CC(C)C)NC(=O)[C@H](CCCNC(=N)N)NC(=O)[C@@H](N)C(C)C)[C@@H](C)CC)C(C)C)C(=O)N[C@@H](Cc1c[nH]c2ccccc12)C(=O)N[C@@H](CCCNC(=N)N)C(=O)N[C@@H](CCCNC(=N)N)C(N)=O (H-VRLIVA[Dap]RIWRR-NH2) | Dose-dependent effect | 102% | Active
16 | CC[C@H](C)[C@H](NC(=O)[C@H](CCCNC(=N)N)NC(=O)[C@H](CCCN)NC(=O)[C@H](C)NC(=O)[C@@H](NC(=O)[C@@H](NC(=O)[C@H](CC(C)C)NC(=O)[C@H](CCCNC(=N)N)NC(=O)[C@@H](N)C(C)C)[C@@H](C)CC)C(C)C)C(=O)N[C@@H](Cc1c[nH]c2ccccc12)C(=O)N[C@@H](CCCNC(=N)N)C(=O)N[C@@H](CCCNC(=N)N)C(N)=O (H-VRLIVA[Orn]RIWRR-NH2) | Dose-dependent effect | 103% | Active
17 | CC[C@H](C)[C@H](NC(=O)[C@H](CCCNC(=N)N)NC(=O)[C@H](CCCCNC(=N)N)NC(=O)[C@H](C)NC(=O)[C@@H](NC(=O)[C@@H](NC(=O)[C@H](CC(C)C)NC(=O)[C@H](CCCNC(=N)N)NC(=O)[C@@H](N)C(C)C)[C@@H](C)CC)C(C)C)C(=O)N[C@@H](Cc1c[nH]c2ccccc12)C(=O)N[C@@H](CCCNC(=N)N)C(=O)N[C@@H](CCCNC(=N)N)C(N)=O (H-VRLIVA[hArg]RIWRR-NH2) | Dose-dependent effect | 107% | Active
18 | CC[C@H](C)[C@H](NC(=O)[C@H](CCCNC(=N)N)NC(=O)[C@@H](NC(=O)[C@H](CCNC(=N)N)NC(=O)[C@@H](NC(=O)[C@@H](NC(=O)[C@H](CC(C)C)NC(=O)[C@H](CCCNC(=N)N)NC(=O)[C@@H](N)C(C)C)[C@@H](C)CC)C(C)C)C(C)C)C(=O)N[C@@H](Cc1c[nH]c2ccccc12)C(=O)N[C@@H](CCCNC(=N)N)C(=O)N[C@@H](CCCNC(=N)N)C(N)=O (H-VRLIV[Agb]VRIWRR-NH2) | Dose-dependent effect | 105.9% | Active
